Paper PMC8409585 (The Journal of Clinical Investigation, 2021)

Biological target: T1, mitochondrial electron transport chain complex I (ETCC1), NADH ubiquinone oxidoreductase (Bos taurus, UniProt P03887+P17694+P42026)
T1 construct: gene MT-ND1

## C=C(C)[C@@H]1C[C@@]2(C)C(=CC1=O)CC[C@@H](OC(=O)/C(C)=C\C)[C@@H]2C [PT, petasin]
  IC50: 3.55 µM
